In PubChem BioAssay AID248 (DTP/NCI, 2004):
“And” between values parts separate entries of the source, which are not always exact repeats. Equal values may be shown once. Inconclusive results and toxic doses are left out.

Test system: L1210 leukemia ip in BDF1 mice, survival T/C
Experiment: NCI In Vivo Anticancer Drug Screen. Data for tumor model L1210 Leukemia (intraperitoneal) in B6D2F1 (BDF1) mice
Conditions: endpoint: mean survival time, higher = longer survival
Procedure, shortened: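 Tumor was transplanted into mice, which were then dosed with test compound or vehicle alone. Survival was recorded for each group, and the treated figure was expressed relative to the control figure.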

[1] = dose: 100.0 mg/kg/injection, schedule: Q01DX009 (ip), vehicle: saline with Tween-80
[2] = dose: 200.0 mg/kg/injection, schedule: Q01DX009 (ip), vehicle: saline with Tween-80
[3] = dose: 100.0 mg/kg/injection, schedule: Q01DX009 (ip), vehicle: Klucel (hydroxypropylcellulose) (HPC)
[4] = dose: 100.0 mg/kg/injection, schedule: Q04DX002 (ip), vehicle: Klucel (hydroxypropylcellulose) (HPC)
[5] = dose: 200.0 mg/kg/injection, schedule: Q01DX009 (ip), vehicle: Klucel (hydroxypropylcellulose) (HPC)
[6] = dose: 200.0 mg/kg/injection, schedule: Q04DX002 (ip), vehicle: Klucel (hydroxypropylcellulose) (HPC)
[7] = dose: 400.0 mg/kg/injection, schedule: Q01DX009 (ip), vehicle: Klucel (hydroxypropylcellulose) (HPC)
[8] = dose: 400.0 mg/kg/injection, schedule: Q04DX002 (ip), vehicle: Klucel (hydroxypropylcellulose) (HPC)
[9] = dose: 100.0 mg/kg/injection, schedule: Q01DX001 (ip), vehicle: saline
[10] = dose: 200.0 mg/kg/injection, schedule: Q01DX001 (ip), vehicle: saline
[11] = dose: 400.0 mg/kg/injection, schedule: Q01DX001 (ip), vehicle: saline
[12] = dose: 100.0 mg/kg/injection, schedule: Q04DX003 (ip), vehicle: Klucel (hydroxypropylcellulose) (HPC)
[13] = dose: 200.0 mg/kg/injection, schedule: Q04DX003 (ip), vehicle: Klucel (hydroxypropylcellulose) (HPC)
[14] = dose: 400.0 mg/kg/injection, schedule: Q04DX003 (ip), vehicle: Klucel (hydroxypropylcellulose) (HPC)
[15] = dose: 100.0 mg/kg/injection, schedule: Q04DX003 (ip), vehicle: saline with Tween-80
[16] = dose: 400.0 mg/kg/injection, schedule: Q01DX009 (ip), vehicle: saline with Tween-80

C/C=C/C1CC2CC(C1C)C2(C)C (stereo not given)
T/C (dose: 50.0 mg/kg/injection, schedule: Q01DX009 (ip), vehicle: saline with Tween-80): 97 % of control | T/C [1]: 97 % of control | T/C [2]: 101 % of control

CC(C)(C)OC(=O)C(N)CC(N)=O (stereo not given)
T/C [3]: 106 % of control | T/C [4]: 103 % of control | T/C [5]: 106 % of control | T/C [6]: 88 % of control | T/C [7]: 98 % of control | T/C [8]: 98 % of control

CC(=O)c1ccc(N=Nc2c(N)nc(N)nc2N)cc1
T/C [9]: 94 % of control | T/C [10]: 94 % of control | T/C [11]: 94 % of control

COc1ccc(Sc2ccccc2N)c([N+](=O)[O-])c1
T/C [12]: 100 % of control | T/C [13]: 97 % of control | T/C [14]: 92 % of control

C[C@]12CCC(=O)C=C1[C@@H](F)C[C@@H]1[C@@H]2[C@@H](O)C[C@@]2(C)[C@H]1CC[C@]2(O)C(=O)CO
T/C (dose: 25.0 mg/kg/injection, schedule: Q01DX015 (ip), vehicle: carboxymethylcellulose (CMC)): 106 % of control | T/C (dose: 50.0 mg/kg/injection, schedule: Q01DX015 (ip), vehicle: carboxymethylcellulose (CMC)): 96 % of control | T/C (dose: 100.0 mg/kg/injection, schedule: Q01DX001 (sc), vehicle: steriod suspending solution): 117 % of control | T/C (dose: 100.0 mg/kg/injection, schedule: Q01DX015 (ip), vehicle: carboxymethylcellulose (CMC)): 110 % of control | T/C (dose: 200.0 mg/kg/injection, schedule: Q01DX001 (sc), vehicle: steriod suspending solution): 89 % of control | T/C (dose: 200.0 mg/kg/injection, schedule: Q01DX015 (ip), vehicle: carboxymethylcellulose (CMC)): 98 % of control | T/C (dose: 400.0 mg/kg/injection, schedule: Q01DX001 (sc), vehicle: steriod suspending solution): 100 % of control | T/C (dose: 400.0 mg/kg/injection, schedule: Q01DX015 (ip), vehicle: carboxymethylcellulose (CMC)): 86 % of control | T/C (dose: 800.0 mg/kg/injection, schedule: Q01DX001 (sc), vehicle: steriod suspending solution): 105 % of control | T/C (dose: 800.0 mg/kg/injection, schedule: Q01DX015 (ip), vehicle: saline): 102 % of control

O=C(CI)Nc1ccc(NC(=O)CI)cc1
T/C [12]: 90 % of control | T/C [13]: 95 % of control

CC(C)=Cc1ccno1
T/C [9]: 100 % of control | T/C [10]: 100 % of control | T/C [11]: 100 % of control

CC1(C)N=CN=C(N)N1c1ccc(CCC(=O)Nc2ccc(S(=O)(=O)F)cc2)c(Cl)c1
T/C [15]: 114 % of control | T/C (dose: 200.0 mg/kg/injection, schedule: Q04DX003 (ip), vehicle: saline with Tween-80): 112 % of control | T/C (dose: 400.0 mg/kg/injection, schedule: Q04DX003 (ip), vehicle: saline with Tween-80): 109 % of control

O=C(COc1ccc(Cl)cc1Cl)Nc1c(Cl)cc(Cl)cc1Cl
T/C [4]: 99 % of control | T/C [6]: 108 % of control | T/C [8]: 86 % of control

C=CCN(CC=C)P(=O)(N1CC1)N1CC1C (stereo not given)
T/C (dose: 0.37 mg/kg/injection, schedule: Q01DX015 (ip), vehicle: carboxymethylcellulose (CMC)): 117 % of control | T/C (dose: 6.0 mg/kg/injection, schedule: Q01DX009 (ip), vehicle: saline): 90 % of control | T/C (dose: 10.0 mg/kg/injection, schedule: Q01DX001 (ip), vehicle: saline): 162 % of control

Cc1cc(C)c(C(=O)/C=C(\N)C(=O)c2c(C)cc(C)cc2C)c(C)c1
T/C (dose: 50.0 mg/kg/injection, schedule: Q04DX003 (ip), vehicle: carboxymethylcellulose (CMC)): 110 % of control | T/C (dose: 100.0 mg/kg/injection, schedule: Q04DX003 (ip), vehicle: carboxymethylcellulose (CMC)): 98 % of control | T/C (dose: 200.0 mg/kg/injection, schedule: Q04DX003 (ip), vehicle: carboxymethylcellulose (CMC)): 104 % of control

N#CCCP(CCC#N)CCCCCCP(CCC#N)CCC#N
T/C (dose: 25.0 mg/kg/injection, schedule: Q04DX003 (ip), vehicle: saline with Tween-80): 97 % of control | T/C (dose: 50.0 mg/kg/injection, schedule: Q04DX003 (ip), vehicle: saline with Tween-80): 90 % of control | T/C [15]: 96 % of control and 90 % of control

COc1ccc(/C=C(\C(=O)c2ccc(O)cc2)c2ccccc2)cc1OC
T/C (dose: 100.0 mg/kg/injection, schedule: Q01DX001 (ip), vehicle: carboxymethylcellulose (CMC)): 94 % of control | T/C (dose: 200.0 mg/kg/injection, schedule: Q01DX001 (ip), vehicle: carboxymethylcellulose (CMC)): 89 % of control | T/C (dose: 400.0 mg/kg/injection, schedule: Q01DX001 (ip), vehicle: carboxymethylcellulose (CMC)): 89 % of control

Cc1cc(C)c2ccc(N)nc2n1
T/C (dose: 9.5 mg/kg/injection, schedule: Q01DX001 (ip), vehicle: saline): 86 % of control | T/C (dose: 19.0 mg/kg/injection, schedule: Q01DX001 (ip), vehicle: saline): 91 % of control | T/C (dose: 38.0 mg/kg/injection, schedule: Q01DX001 (ip), vehicle: saline): 101 % of control

CN(CCCCN(C)CCOS(C)(=O)=O)CCOS(C)(=O)=O
T/C (dose: 1.7 mg/kg/injection, schedule: Q01DX015 (ip), vehicle: saline): 177 % of control | T/C (dose: 8.3 mg/kg/injection, schedule: Q01DX001 (ip), vehicle: saline): 155 % of control | T/C (dose: 12.5 mg/kg/injection, schedule: Q01DX001 (ip), vehicle: saline): 160 % of control | T/C (dose: 18.7 mg/kg/injection, schedule: Q01DX001 (ip), vehicle: saline): 155 % of control | T/C (dose: 25.0 mg/kg/injection, schedule: Q01DX001 (ip), vehicle: saline): 116 % of control

CC(C)N(C)N=Nc1n[nH]nc1C(N)=O
T/C (dose: 200.0 mg/kg/injection, schedule: Q01DX Z (ip), vehicle: carboxymethylcellulose (CMC)): 104 % of control

FCCCC1CCCCN1 (stereo not given)
T/C (dose: 12.5 mg/kg/injection, schedule: Q01DX009 (ip), vehicle: saline): 98 % of control | T/C (dose: 25.0 mg/kg/injection, schedule: Q01DX009 (ip), vehicle: saline): 102 % of control | T/C (dose: 50.0 mg/kg/injection, schedule: Q01DX009 (ip), vehicle: saline): 96 % of control and 109 % of control

C/C(=C/Cl)OC(C)C
T/C (dose: 50.0 mg/kg/injection, schedule: Q01DX009 (ip), vehicle: acetone): 99 % of control | T/C (dose: 100.0 mg/kg/injection, schedule: Q01DX009 (ip), vehicle: acetone): 99 % of control | T/C (dose: 200.0 mg/kg/injection, schedule: Q01DX009 (ip), vehicle: acetone): 101 % of control

Cc1cc([N+](=O)[O-])ccc1NC(=O)Nc1ccccc1F
T/C [1]: 102 % of control | T/C [2]: 86 % of control | T/C [16]: 96 % of control

CCOC(=O)c1ccc(C)cc1Nc1ccccc1C(F)(F)F
T/C [12]: 90 % of control | T/C [13]: 94 % of control | T/C [14]: 95 % of control

CCCCn1cnc2c(SC)ncnc21
T/C (dose: 50.0 mg/kg/injection, schedule: Q01DX001 (ip), vehicle: saline): 101 % of control | T/C [9]: 107 % of control | T/C [10]: 103 % of control

CCCCOc1ccc(OC(=O)Nc2cccc(C(C)=O)c2)cc1
T/C [3]: 108 % of control | T/C [5]: 96 % of control | T/C [7]: 96 % of control

COc1ccc(COC(=O)Nc2cccc(Cl)c2)cc1
T/C (dose: 100.0 mg/kg/injection, schedule: Q01DX001 (ip), vehicle: Klucel (hydroxypropylcellulose) (HPC)): 111 % of control | T/C [3]: 93 % of control and 97 % of control | T/C [4]: 100 % of control | T/C [12]: 108 % of control | T/C (dose: 200.0 mg/kg/injection, schedule: Q01DX001 (ip), vehicle: Klucel (hydroxypropylcellulose) (HPC)): 101 % of control | T/C [5]: 90 % of control and 92 % of control | T/C [6]: 104 % of control | T/C [13]: 102 % of control | T/C (dose: 400.0 mg/kg/injection, schedule: Q01DX001 (ip), vehicle: Klucel (hydroxypropylcellulose) (HPC)): 95 % of control | T/C [7]: 93 % of control and 90 % of control | T/C [14]: 111 % of control

CCCCCCCC/C=C\CCCCCCCC(=O)OCC#CCOC(=O)CCCCCCC/C=C/CCCCCCCC
T/C (dose: 100.0 mg/kg/injection, schedule: Q01DX001 (ip), vehicle: saline with Tween-80): 94 % of control | T/C [1]: 95 % of control and 101 % of control | T/C (dose: 100.0 mg/kg/injection, schedule: Q04DX002 (ip), vehicle: saline with Tween-80): 97 % of control and 102 % of control | T/C (dose: 200.0 mg/kg/injection, schedule: Q01DX001 (ip), vehicle: saline with Tween-80): 91 % of control | T/C [2]: 93 % of control and 94 % of control | T/C (dose: 200.0 mg/kg/injection, schedule: Q04DX002 (ip), vehicle: saline with Tween-80): 97 % of control and 104 % of control | T/C (dose: 400.0 mg/kg/injection, schedule: Q01DX001 (ip), vehicle: saline with Tween-80): 94 % of control | T/C [16]: 95 % of control and 97 % of control | T/C (dose: 400.0 mg/kg/injection, schedule: Q04DX002 (ip), vehicle: saline with Tween-80): 96 % of control and 108 % of control
